Assay results taken from patent publication EP0753512B1, “N,N,-diethyl-8,8-dipropyl-2-azaspiro[4.5]decane-2-propanamin] dimaleate salt” (AnorMED Inc, priority 1995, dated 1997).

Tests used:
[1] = Hygroscopicity: rate of moisture absorption, Integrated Microbalance System; type: physicochemical; settings: for % Weight Gain (Moisture Absorption): 25 °C; for hygroscopicity: statement in words, upon storage
Experimental: The rate of moisture absorption of Compound B and Compound C were tested individually in an Integrated Microbalance System, MODEL MB 300 G (VTI Corporation, Hialeah, Florida) using the accompanying Software Manual. Table 2(a) [table]

[2] = Relative solubilities in water, HCl and methanol; type: physicochemical
[3] = organic solvent or mixture, Solvent: methanol

| SMILES | % Weight Gain (Moisture Absorption) ([1]; 0 % relative humidity) | % Weight Gain (Moisture Absorption) ([1]; 10 % relative humidity) | % Weight Gain (Moisture Absorption) ([1]; 15 % relative humidity) | % Weight Gain (Moisture Absorption) ([1]; 20 % relative humidity) | % Weight Gain (Moisture Absorption) ([1]; 25 % relative humidity) | % Weight Gain (Moisture Absorption) ([1]; 30 % relative humidity) | % Weight Gain (Moisture Absorption) ([1]; 35 % relative humidity) | % Weight Gain (Moisture Absorption) ([1]; 40 % relative humidity) | % Weight Gain (Moisture Absorption) ([1]; 45 % relative humidity) | % Weight Gain (Moisture Absorption) ([1]; 50 % relative humidity) | % Weight Gain (Moisture Absorption) ([1]; 55 % relative humidity) | % Weight Gain (Moisture Absorption) ([1]; 60 % relative humidity) | % Weight Gain (Moisture Absorption) ([1]; 65 % relative humidity) | % Weight Gain (Moisture Absorption) ([1]; 70 % relative humidity) | % Weight Gain (Moisture Absorption) ([1]; 75 % relative humidity) | % Weight Gain (Moisture Absorption) ([1]; 80 % relative humidity) | % Weight Gain (Moisture Absorption) ([1]; 85 % relative humidity) | hygroscopicity [1] | solubility ([2]; Solvent: 0.1% HCl) | solubility ([2]; Solvent: Water) | other results |
| --- | --- | --- | --- | --- | --- | --- | --- | --- | --- | --- | --- | --- | --- | --- | --- | --- | --- | --- | --- | --- | --- |
| CCCC1(CCC)CCC2(CCN(CCCN(CC)CC)C2)CC1.Cl.Cl [Compound B, N,N-diethyl-8,8-dipropyl-2-azaspiro[4.5]decane-2-propanamine dihydrochloride, reference compound] | 0% | 0.20% | 1.81% | 2.17% | 2.84% | 3.74% | 3.15% | 3.30% | 4.74% | 5.49% | 9.07% | 9.26% | 9.50% | 15.47% | 31.30% | 36.53% | 44.16% | hygroscopic | > 100 mg/mL | > 100 mg/mL | solubility [2, 3]: > 100 mg/mL |
| CCCC1(CCC)CCC2(CCN(CCCN(CC)CC)C2)CC1.O=C(O)/C=C\C(=O)O.O=C(O)/C=C\C(=O)O [Compound C, N,N-diethyl-8,8-dipropyl-2-azaspiro[4.5]decane-2-propanamine dimaleate] | 0% | -0.21% | -0.18% | -0.08% | -0.12% | -0.08% | -0.08% | -0.08% | -0.05% | -0.04% | 0.04% | 0.1% | 0.18% | 0.41% | 0.56% | 0.89% | 1.70% | far less hygroscopic | > 100 mg/mL | > 100 mg/mL | % Weight Gain (Moisture Absorption) ([1]; 90 % relative humidity): 5.37%; % Weight Gain (Moisture Absorption) ([1]; 95 % relative humidity): 42.88%; solubility [2, 3]: > 100 mg/mL |
